Activity calls are given as the source filed them. The calls are words filed in the database; no cut-off is given here. Residues, ends and D or L forms follow the SMILES beside them.
Experiments:
[1] = target: T1, Neuropeptide Y receptor type 4 (Homo sapiens, UniProt P50391); assay: Agonist activity at human neuropeptide Y Y4 receptor expressed in HEK293T-ARRB2 cells assessed as stimulation of beta-arrestin 2 recruitment by multimode plate reader; type: functional, cell-based
[2] = target: T1, Neuropeptide Y receptor type 4; assay: Agonist activity at human neuropeptide Y Y4 receptor expressed in HEK293T-ARRB1 cells assessed as stimulation of beta-arrestin 1 recruitment by multimode plate reader; type: functional, cell-based
Homo sapiens [3] = organism: Homo sapiens; assay: Selectivity ratio, Ki for displacement of [3H]propionyl-pNPY from human neuropeptide Y Y5 receptor in human HEC-1B cells measured after 90 mins by scintillation counting analysis to Ki for displacement of [3H]UR-KK200 from human neuropeptide Y Y4 receptor expressed in CHO-mtAEQ cells co-expressing Gqi5 measured after 90 mins by scintillation counting analysis; type: cell-based
[4] = target: T1, Neuropeptide Y receptor type 4; assay: Intrinsic activity at human neuropeptide Y Y4 receptor expressed in HEK293T-ARRB2 cells assessed as stimulation of beta-arrestin 2 recruitment by multimode plate reader relative to hPP; type: functional, cell-based
Homo sapiens [5] = organism: Homo sapiens; assay: Selectivity ratio, Ki for displacement of [3H]UR-MK299 from human neuropeptide Y Y1 receptor in human SK-N-MC cells measured after 90 mins by scintillation counting analysis to Ki for displacement of [3H]UR-KK200 from human neuropeptide Y Y4 receptor expressed in CHO-mtAEQ cells co-expressing Gqi5 measured after 90 mins by scintillation counting analysis; type: cell-based
[6] = target: T1, Neuropeptide Y receptor type 4; assay: Displacement of [3H]UR-KK200 from human neuropeptide Y Y4 receptor expressed in CHO-mtAEQ cells co-expressing Gqi5 assessed as fold change in affinity measured after 90 mins by scintillation counting analysis relative to Ac-Arg-Tyr-Arg-Leu-Arg-Tyr-NH2; type: cell-based; settings: filed as agonist
[7] = target: T1, Neuropeptide Y receptor type 4; assay: Agonist activity at human neuropeptide Y Y4 receptor expressed in CHO-mtAEQ cells co-expressing Gqi5 by calcium aequorin assay; type: functional, cell-based
[8] = target: T1, Neuropeptide Y receptor type 4; assay: Intrinsic activity at human neuropeptide Y Y4 receptor expressed in HEK293T-ARRB1 cells assessed as stimulation of beta-arrestin 1 recruitment by multimode plate reader relative to hPP; type: functional, cell-based
[9] = target: T1, Neuropeptide Y receptor type 4; assay: Displacement of [3H]UR-KK200 from human neuropeptide Y Y4 receptor expressed in CHO-mtAEQ cells co-expressing Gqi5 measured after 90 mins by scintillation counting analysis; type: cell-based
[10] = target: T1, Neuropeptide Y receptor type 4; assay: Intrinsic activity at human neuropeptide Y Y4 receptor expressed in CHO-mtAEQ cells co-expressing Gqi5 by calcium aequorin assay; type: functional, cell-based
[11] = target: T2, Neuropeptide Y receptor type 2 (Homo sapiens, UniProt P49146); assay: Displacement of [3H]UR-MK299 from human neuropeptide Y Y2 receptor expressed in CHO cells measured after 90 mins by scintillation counting analysis; type: cell-based
T2 sequence (P49146 whole entry): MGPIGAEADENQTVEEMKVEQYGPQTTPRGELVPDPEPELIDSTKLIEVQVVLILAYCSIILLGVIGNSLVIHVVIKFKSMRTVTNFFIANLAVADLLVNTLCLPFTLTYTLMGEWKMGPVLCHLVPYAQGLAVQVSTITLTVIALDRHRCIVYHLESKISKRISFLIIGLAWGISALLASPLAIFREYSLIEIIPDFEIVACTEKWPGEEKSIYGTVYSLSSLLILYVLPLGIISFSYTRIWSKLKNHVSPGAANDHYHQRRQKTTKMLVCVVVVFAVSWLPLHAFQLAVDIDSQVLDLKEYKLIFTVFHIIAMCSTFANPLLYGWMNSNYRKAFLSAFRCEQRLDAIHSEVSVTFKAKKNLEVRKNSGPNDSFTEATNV

[12] = target: T3, Neuropeptide Y receptor type 5 (Homo sapiens, UniProt Q15761); assay: Displacement of [3H]propionyl-pNPY from human neuropeptide Y Y5 receptor in human HEC-1B cells measured after 90 mins by scintillation counting analysis; type: cell-based, HEC-1B cell line
T3 sequence (Q15761 whole entry): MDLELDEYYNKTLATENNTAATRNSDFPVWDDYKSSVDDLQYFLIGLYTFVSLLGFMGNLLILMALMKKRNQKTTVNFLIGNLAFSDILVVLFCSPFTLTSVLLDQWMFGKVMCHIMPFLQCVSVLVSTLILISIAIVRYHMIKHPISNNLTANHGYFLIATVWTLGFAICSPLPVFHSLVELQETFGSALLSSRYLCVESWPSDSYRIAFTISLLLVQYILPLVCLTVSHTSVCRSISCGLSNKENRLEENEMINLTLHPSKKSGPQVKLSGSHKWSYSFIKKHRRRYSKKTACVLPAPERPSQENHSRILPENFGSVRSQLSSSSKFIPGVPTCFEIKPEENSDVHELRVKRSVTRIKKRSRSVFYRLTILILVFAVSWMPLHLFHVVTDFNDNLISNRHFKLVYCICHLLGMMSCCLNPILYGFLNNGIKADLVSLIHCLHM

Homo sapiens [13] = organism: Homo sapiens; assay: Selectivity ratio, Ki for displacement of [3H]UR-MK299 from human neuropeptide Y Y2 receptor expressed in CHO cells measured after 90 mins by scintillation counting analysis to Ki for displacement of [3H]UR-KK200 from human neuropeptide Y Y4 receptor expressed in CHO-mtAEQ cells co-expressing Gqi5 measured after 90 mins by scintillation counting analysis; type: cell-based
[14] = target: T4, Neuropeptide Y receptor type 1 (Homo sapiens, UniProt P25929); assay: Displacement of [3H]UR-MK299 from human neuropeptide Y Y1 receptor in human SK-N-MC cells measured after 90 mins by scintillation counting analysis; type: cell-based
T4 sequence (P25929 whole entry): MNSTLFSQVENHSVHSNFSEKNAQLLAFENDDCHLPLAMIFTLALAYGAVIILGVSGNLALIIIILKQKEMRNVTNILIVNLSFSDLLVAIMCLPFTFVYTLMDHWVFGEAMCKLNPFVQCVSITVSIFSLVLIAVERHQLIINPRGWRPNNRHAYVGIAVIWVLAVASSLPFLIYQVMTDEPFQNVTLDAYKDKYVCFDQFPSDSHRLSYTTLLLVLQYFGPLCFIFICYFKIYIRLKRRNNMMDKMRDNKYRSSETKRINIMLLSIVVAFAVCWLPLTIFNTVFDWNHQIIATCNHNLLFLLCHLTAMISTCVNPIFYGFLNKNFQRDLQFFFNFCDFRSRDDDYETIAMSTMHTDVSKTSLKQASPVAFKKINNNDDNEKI

T1 sequence (P50391 whole entry): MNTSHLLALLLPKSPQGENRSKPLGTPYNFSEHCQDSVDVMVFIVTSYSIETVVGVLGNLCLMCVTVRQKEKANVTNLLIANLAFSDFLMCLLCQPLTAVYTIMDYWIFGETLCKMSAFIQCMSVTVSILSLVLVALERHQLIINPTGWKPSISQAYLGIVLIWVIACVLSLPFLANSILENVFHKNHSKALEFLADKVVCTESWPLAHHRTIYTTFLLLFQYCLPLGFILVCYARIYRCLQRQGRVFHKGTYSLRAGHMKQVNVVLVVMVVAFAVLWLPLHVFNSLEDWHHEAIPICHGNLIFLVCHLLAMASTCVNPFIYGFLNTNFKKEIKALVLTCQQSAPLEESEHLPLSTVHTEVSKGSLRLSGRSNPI

Structure (SMILES)	EC50 [1] [nM]	EC50 ([2]; read-out: EC50) [nM]	Selectivity ratio (Homo sapiens [3])	Intrinsic activity [4]	Selectivity ratio (Homo sapiens [5])	fold change (FC) [6]	EC50 [7] [nM]	Intrinsic activity [8]	Ki ([9]; read-out: Ki) [nM]	Ki ([9]; read-out: pKi (converted)) [nM]	Intrinsic activity [10]	Ki ([11]; read-out: Ki) [nM]	Ki ([11]; read-out: pKi (converted)) [nM]	Ki ([12]; hec-1b cell line, read-out: Ki) [nM]	Ki ([12]; read-out: pKi (converted)) [nM]	Selectivity ratio (Homo sapiens [13])	Ki ([14]; read-out: pKi (converted)) [nM]	EC50 ([2]; read-out: pEC50 (converted)) [nM]	Ki ([12]; read-out: Ki) [nM]	Ki ([14]; read-out: Ki) [nM]
N=C(N)NCCC[C@@H]1NC(=O)CCC(=O)NCCCNC(=O)NC(=N)NCCC[C@@H](C(=O)N[C@@H](Cc2c[nH]c3ccccc23)C(=O)N[C@@H](CCCNC(=N)N)C(=O)N[C@@H](Cc2ccc(O)cc2)C(N)=O)NC(=O)[C@H](Cc2ccc(O)cc2)NC1=O (HELM PEPTIDE1{R.Y.[N=C(NCCC[C@H](N[*:1])C(=O)[*:2])N[*:3]].W.R.Y.[am]}|CHEM1{[O=C(CCC(=O)[*:1])NCCCNC(=O)[*:2]]}$PEPTIDE1,CHEM1,1:R1-1:R1|PEPTIDE1,CHEM1,3:R3-1:R2$$$V2.0)	355	520	> 350	47%	> 350	-8.2	380	35%	28	28.8	45%	> 10000	> 10000	> 10000	> 10000	> 350	> 10000			
CC(C)C[C@H](NC(=O)[C@@H]1CCC(=O)NCC(=O)N[C@H](CCCNC(=N)N)C(=O)N[C@@H](CCCNC(=N)N)C(=O)N1)C(=O)N[C@@H](CCCNC(=N)N)C(=O)N[C@@H](Cc1ccc(O)cc1)C(N)=O	> 10000		> 100	inactive	> 100	-8.8	> 10000	inactive	30	28.8	inactive	> 3000	> 3160		> 3160	> 100	> 3160	> 10000	> 3000	> 3000
CC(C)C[C@H](NC(=O)[C@H](CCCNC(=N)NC(=O)NCCCN)NC(=O)[C@H](Cc1ccc(O)cc1)NC(=O)[C@H](CCCNC(=N)N)NC(=O)CCC(=O)O)C(=O)N[C@@H](CCCNC(=N)N)C(=O)N[C@@H](Cc1ccc(O)cc1)C(N)=O	129	50	> 15000	71%	> 15000	5.2	178	61%	0.66	0.646	65%	> 10000	> 10000	> 10000	> 10000	> 15000	> 10000			
CC(C)C[C@H](NC(=O)[C@@H]1CCCNC(=N)NC(=O)NCCCCNC(=O)CCC(=O)N[C@@H](CCCCN)C(=O)N[C@@H](Cc2ccc(O)cc2)C(=O)N1)C(=O)N[C@@H](CCCNC(=N)N)C(=O)N[C@@H](Cc1ccc(O)cc1)C(N)=O (HELM PEPTIDE1{K.Y.[N=C(NCCC[C@H](N[*:1])C(=O)[*:2])N[*:3]].L.R.Y.[am]}|CHEM1{[O=C(CCC(=O)[*:1])NCCCCNC(=O)[*:2]]}$PEPTIDE1,CHEM1,1:R1-1:R1|PEPTIDE1,CHEM1,3:R3-1:R2$$$V2.0)	12.9	14	> 12000	67%	> 12000	14	25.7	61%	0.24		75%	> 10000	> 10000		> 3160	> 40000	> 3160		> 3000	> 3000
CC(C)C[C@H](NC(=O)[C@H](CCCNC(=N)N)NC(=O)[C@@H]1CCC(=O)N[C@@H](CCCNC(=N)N)C(=O)NCC(=O)N[C@@H](Cc2ccc(O)cc2)C(=O)N1)C(=O)N[C@@H](CCCNC(=N)N)C(=O)N[C@@H](Cc1ccc(O)cc1)C(N)=O (HELM PEPTIDE1{R.G.Y.E.R.L.R.Y.[am]}$PEPTIDE1,PEPTIDE1,1:R1-4:R3$$$V2.0)	178	290	> 1200	74%	300	1.4	676	64%	2.5		48%	> 10000	> 10000		> 3160	> 4000	457		> 3000	760
N=C(N)NCCC[C@H](NC(=O)CCC(=O)O)C(=O)N[C@@H](Cc1ccc(O)cc1)C(=O)N[C@@H](CCCNC(=N)NC(=O)NCCCCN)C(=O)N[C@@H](Cc1c[nH]c2ccccc12)C(=O)N[C@@H](CCCNC(=N)N)C(=O)N[C@@H](Cc1ccc(O)cc1)C(N)=O (single isomer, unassigned)	145		> 200	inactive	> 60	-15	75.9	inactive	50		inactive	> 3000	> 3160	> 10000	> 10000	> 60	> 3160	85.1		> 3000

Source: ChEMBL document CHEMBL4840359, “N-Terminus to Arginine Side-Chain Cyclization of Linear Peptidic Neuropeptide Y Y4 Receptor Ligands Results in Picomolar Binding Constants” (J Med Chem, 2021)
